Our source for the IC50 and inhibition values is ChEMBL document CHEMBL1126354, “Structural analysis of 2-aryl-1,3-dione compounds as inhibitors of 5-lipoxygenase” (Bioorg Med Chem Lett, 1992).

The target in one experiment is T1, Polyunsaturated fatty acid 5-lipoxygenase (Rattus norvegicus, UniProt P12527).
T1 sequence (P12527 whole entry): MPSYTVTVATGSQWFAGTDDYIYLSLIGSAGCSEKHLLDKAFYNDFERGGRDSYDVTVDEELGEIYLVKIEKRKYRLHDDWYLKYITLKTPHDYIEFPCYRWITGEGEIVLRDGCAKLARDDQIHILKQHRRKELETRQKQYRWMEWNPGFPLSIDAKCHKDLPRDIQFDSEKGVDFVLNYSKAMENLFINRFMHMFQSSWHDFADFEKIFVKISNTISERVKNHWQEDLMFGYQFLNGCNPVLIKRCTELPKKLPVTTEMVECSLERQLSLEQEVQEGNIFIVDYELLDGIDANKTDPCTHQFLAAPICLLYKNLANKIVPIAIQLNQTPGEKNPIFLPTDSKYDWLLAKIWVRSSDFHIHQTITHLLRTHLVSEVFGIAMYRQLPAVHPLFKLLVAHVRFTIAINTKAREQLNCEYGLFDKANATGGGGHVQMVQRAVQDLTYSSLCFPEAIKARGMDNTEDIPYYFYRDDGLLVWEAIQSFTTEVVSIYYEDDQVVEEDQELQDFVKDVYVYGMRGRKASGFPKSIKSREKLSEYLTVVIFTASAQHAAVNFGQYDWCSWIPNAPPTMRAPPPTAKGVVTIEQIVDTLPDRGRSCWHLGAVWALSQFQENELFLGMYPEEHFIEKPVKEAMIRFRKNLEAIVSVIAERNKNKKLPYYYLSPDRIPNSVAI
Put plainly: In vitro for inhibition of 5-lipoxygenase activity in RBL-1 cells. The format is cell-based.
As usually defined, the IC50 is the concentration at which inhibition is half-maximal. High values mean weaker potency in that assay, low ones greater potency in that assay. Turning to `O=C1c2ccccc2[C@@H](O)[C@H]1c1ccccc1`, the IC50 entry is recorded as “Not Active”.

In the case of `C=CCC1C(=O)c2ccccc2C1=O`, the concentration for half-maximal inhibition (IC50) entry was “Not Active”.

In the case of `O=C1c2ccccc2C(=O)C1(c1ccccc1)C1(c2ccccc2)C(=O)c2ccccc2C1=O`, the 50% inhibitory concentration (IC50) result was “Not Active”.

As for `O=C1CCCC(=O)C1c1ccccc1`, the IC50 result was “Not Active”.

On to `O=C1c2ccccc2C(=O)N1c1ccccc1` [N-PHENYL-PHTHALIMIDE], for which the half-inhibitory concentration (IC50) result is “Not Active”.

Turning to `O=C(c1ccccc1)C(C(=O)c1ccccc1)c1ccccc1`, the IC50 result was “Not Active”.

Take `O=C1c2ccccc2C(=O)C1[N+](=O)[O-]`: the IC50 result is given as “Not Active”.

On to `O=C1CC(=O)c2ccccc21`, for which the IC50 entry was “Not Active”.

Consider `O=C1CCC(=O)C1c1ccccc1`, for which the IC50 result is given as “Not Active”.

In the case of `O=C1C(=Cc2ccccc2)C(=O)c2ccccc21`, the concentration for half-maximal inhibition (IC50) result is reported as “Not Active”.

As to `COc1ccc(C=C2C(=O)c3ccccc3C2=O)cc1`, the half-maximal inhibitory concentration (IC50) entry is “Not Active”.

Take `O=C1c2ccccc2[C@H](O)[C@H]1c1ccccc1`: the IC50 entry is “Not Active”.

Turning to `O=C1C(c2ccccc2)C(=O)C2CC=CCC12` (stereo not drawn), the IC50 result is “Not Active”.

Regarding `COC1=C(c2ccccc2)C(=O)c2ccccc21`, the IC50 result is on record as “Not Active”.

As for `O=C1c2cccc3cccc(c23)C(=O)C1c1ccccc1`, the IC50 entry was “Not Active”.

In a further experiment the target is T1, Polyunsaturated fatty acid 5-lipoxygenase. Put plainly: In vitro inhibition of 5-lipoxygenase activity in RBL-1 cells. The experiment is classed as cell-based.
`CN(C)c1ccc(C2C(=O)c3ccccc3C2=O)cc1` showed an IC50 of 4.5 µM.

Consider `CCCCc1ccc(C2C(=O)c3ccccc3C2=O)cc1`, for which it took 1.7 µM to reach half-maximal inhibition (IC50).

As for `O=C1CCCCC(=O)C1c1ccc2c(c1)OCO2`, inhibition was half-maximal at 25 µM (IC50).

`O=C1c2ccc(Br)cc2C(=O)C1(F)c1ccccc1` (stereo not drawn) had an IC50 of 2.3 µM.

In the case of `O=C1c2ccccc2C(=O)C1(Sc1ccccc1)c1ccccc1`, the IC50 worked out at 4.8 µM.

For the molecule `O=C1c2ccccc2C(=O)C1c1ccc2ccccc2c1`, the IC50 amounted to 3.2 µM.

`O=C1c2ccccc2C(=O)C1(F)c1ccccc1` registered an IC50 of 1.7 µM.

On to `O=C1c2ccccc2C(=O)C1c1ccc(F)cc1` [FLUINDIONE], for which the IC50 was found to be 9.6 µM.

For the molecule `O=C1c2ccccc2C(=O)C1c1ccc(Cl)cc1` [CLORINDIONE], the IC50 stood at 5 µM.

In turn, `CSC1(c2ccccc2)C(=O)c2ccccc2C1=O` yielded an IC50 of 15 µM.

`CCCCc1ccc(C2C(=O)CCCCCC2=O)cc1` gave an IC50 of 12 µM.

For the molecule `CSc1ccc(C2C(=O)c3ccccc3C2=O)cc1`, the IC50 worked out at 2.7 µM.

In the case of `COc1ccc(C2C(=O)c3ccccc3C2=O)cc1` [ANISINDIONE], the IC50 stood at 9.1 µM.

As to `O=C1c2ccccc2C(=O)C1(F)c1ccc2ccccc2c1`, it took 2 µM to reach half-maximal inhibition (IC50).

For `O=C1CCCCC(=O)C1c1ccccc1`, the IC50 came out at 41 µM.

In the case of `CC(C)(C)c1cc(C2C(=O)c3ccccc3C2=O)cc(C(C)(C)C)c1`, half-maximal inhibition (IC50) required 2.8 µM.

`O=C1c2ccccc2C(=O)C1c1ccccc1` [PHENINDIONE] registered a half-maximal inhibitory concentration (IC50) of 15 µM.

In a further experiment the target is T2, Polyunsaturated fatty acid 5-lipoxygenase (Rattus norvegicus) (UniProt P12527).
T2 sequence (whole entry): T1 sequence (P12527 whole entry)
Put plainly: The compound was evaluated in vitro for inhibition of 5-lipoxygenase activity in RBL-1 cells at 100 uM. The experiment is classed as cell-based.
One may read the inhibition as how much of the control response was suppressed. High values mean a strong effect, low ones a weak effect. `O=C1CCCCCC(=O)C1c1ccccc1` yielded an inhibition of 45%.

The target of another experiment is T2, Polyunsaturated fatty acid 5-lipoxygenase (Rattus norvegicus). Put plainly: The compound was evaluated in vitro for inhibition of 5-lipoxygenase activity in RBL-1 cells at 30 uM. The format is cell-based.
`O=C1c2ccccc2C(=O)C1c1cccc2ccccc12` displayed an inhibition of 14%.

As to `O=C1C(c2ccccc2)=C(c2ccccc2)C(=O)C1c1ccccc1`, the inhibition was determined as 45%.

The target in another experiment is T1, Polyunsaturated fatty acid 5-lipoxygenase. Put plainly: The compound was evaluated in vitro for inhibition of 5-lipoxygenase activity in RBL-1 cells; No significant inhibitory activity up to 30 uM. The experiment is classed as cell-based.
Consider `O=C(O)c1ccc(C2C(=O)c3ccccc3C2=O)cc1`, for which the half-maximal inhibitory concentration (IC50) entry is recorded as “Not Active”.

The target is the same in the next experiment. Put plainly: The compound was evaluated in vitro for inhibition of 5-lipoxygenase activity in RBL-1 cells. The experiment is classed as cell-based.
The molecule `O=C1c2ccccc2C(=O)C1C1C(=O)c2ccccc2C1=O` yielded an IC50 of 28 µM.

A further experiment has as its target T2, Polyunsaturated fatty acid 5-lipoxygenase (Rattus norvegicus). Put plainly: The compound was evaluated in vitro for inhibition of 5-lipoxygenase activity in RBL-1 cells at 20 uM. The experiment is classed as cell-based.
`O=C1c2ccccc2-c2ccccc2C(=O)C1c1ccccc1` had an inhibition of 50%.
